According to paper PMC10712727, “Safety, Tolerability, and Pharmacokinetics of Senaparib, a Novel PARP1/2 Inhibitor, in Chinese Patients With Advanced Solid Tumors: A Phase I Trial” (The Oncologist, 2023):

Tested on: advanced solid tumors
Assay: Tumor response per RECIST v1.1 (ORR, DCR, DOR, PFS), ITT population
Type: in vivo, human
Source text: The dose-expansion period included 3 populations: dose groups in which at least one patient achieved complete response (CR) or partial response (PR) per RECIST v1.1[16] and 1 dose group higher (evaluated for safety), as well as the dose group at the maximum tolerated dose (MTD)/recommended phase II dose (RP2D). Each of these groups included those patients in the respective dose-escalation group plus a planned additional 10 patients (approximately 20 patients in the MTD/RP2D group) with BRCA^mut+ solid tumors (ovarian, breast, or prostate cancer were preferred, and ovarian cancer could be BRCA wild type). Patients received senaparib monotherapy orally QD or BID (50-mg dose only) over each 3-week cycle until disease progression or unacceptable toxicity.
Safety was assessed by recording the incidence of dose-limiting toxicities (DLTs), and the incidence, nature, severity (graded per National Cancer Institute Common Terminology Criteria for Adverse Events version 4.03 [NCI CTCAE v4.03][18]), and relatedness of treatment-emergent adverse events (TEAEs). DLTs were predefined toxicities (Supplementary Table S2) recorded over the 7 days following the single-dose administration of senaparib and during the first treatment cycle (day 1-day 21) for each dose group in the dose-escalation period only. The MTD was defined as the maximum dose at which ≤1/6 patients experienced a DLT. Senaparib PK parameters were derived from blood samples collected from patients after the single administration, and at regular intervals during the first cycle of the dose-escalation and dose-expansion periods. Plasma concentrations of senaparib were determined using high-performance liquid chromatography-tandem mass spectrometry. Tumor response was assessed every 6 weeks per RECIST v1.1,[16] recording objective response rate (ORR), disease control rate (DCR), duration of response (DOR), and progression-free survival (PFS) by dose level for all patients and for those harboring BRCA^mut+ tumors.
There was no formal sample size calculation based on statistical hypothesis testing for this study; the planned enrolment was approximately 30-60 patients across the dose-escalation and dose-expansion cohorts. The actual number in the dose-escalation cohort was adjusted based on the number of dose cohorts required for the modified Fibonacci dose-escalation design and the determined MTD. Definitions for all analysis populations (safety, DLT, PK, and efficacy [intent-to-treat, ITT]) are provided in Supplementary Table S2. No statistical tests were performed; patient demographic and baseline characteristics, safety/tolerability, PK parameters, and efficacy were evaluated descriptively. ORR and DCR and their 95% CIs were calculated for each group using the exact probability method. Kaplan-Meier statistics were used to estimate DOR and PFS, and their 95% CIs for each dose group separately. Dose linearity was explored based on the single-dose data of area under the time-concentration curve (AUC) and maximum plasma concentration (Cmax) using the power model (Y = α × dose β) for the dose range 2-80 mg on a log-transformed scale. The following criterion was used to determine whether dose proportionality was met: if the (2-sided) 90% CI for β was wholly contained within the interval (1 + log(0.5)/log(r), 1 + log(2)/log(r)), then dose proportionality was supported. Here, r was defined as the ratio of the highest to lowest dose. All data analyses were carried out using SAS EG7.1 or higher or (for PK parameters) WinNonlin 7.0 or higher.

[1] = ITT, evaluable n = 44, all doses

With `O=C(c1cc(Cn2c(=O)[nH]c(=O)c3c(F)cccc32)ccc1F)N1CCN(c2ncccn2)CC1` [Senaparib] the “Patients with a reduction from baseline in tumor size” value (BRCA wild-type (6/18)) was 33.3%, the “Patients with a reduction from baseline in tumor size” value (BRCA^mut+ patients (13/26)) was 50.0% and the “Median PFS” value (ITT population, 95% CI, 56-255 days) was 167 days. For the same molecule, the “DOR, Events” value (ITT, 2 mg QD n = 1) was 0 n (%), the ORR (ITT, 2 mg QD n = 1) was 0 n (%) and the “PFS, Events” value (ITT, 2 mg QD n = 1) was 0 (0) n (%). For the same molecule, the “DOR, Events” value (ITT, 5 mg QD n = 3) was 0 n (%), the ORR (ITT, 5 mg QD n = 3) was 0 n (%) and the “PFS, Events” value (ITT, 5 mg QD n = 3) was 2 (66.7) n (%). For the same molecule, the “PFS, Median (95% CI)” value (ITT, 5 mg QD n = 3) was 464 (45-464) days, the Complete response (ITT, 10 mg QD n = 3) was 0 n (%) and the DCR (ITT, 10 mg QD n = 3) was 1 (33.3) n (%). The “DOR, Events” value (ITT, 10 mg QD n = 3) was 0 n (%), the ORR (ITT, 10 mg QD n = 3) was 0 (0) n (%) and the “PFS, Events” value (ITT, 10 mg QD n = 3) was 3 (100) n (%). For the same molecule, the “PFS, Median (95% CI)” value (ITT, 10 mg QD n = 3) was 49 (47-88) days, the Partial response (ITT, 10 mg QD n = 3) was 0 n (%) and the Stable disease (ITT, 10 mg QD n = 3) was 1 (33.3) n (%). For the same molecule, the Complete response (ITT, 20 mg QD n = 5) was 0 n (%), the DCR (ITT, 20 mg QD n = 5) was 2 (50.0) n (%) and the “DOR, Events” value (ITT, 20 mg QD n = 5) was 1 (50.0) n (%). For the same molecule, the “DOR, Median (95% CI)” value (ITT, 20 mg QD n = 5) was “— (1-NR)”, the ORR (ITT, 20 mg QD n = 5) was 2 (50.0) n (%) and the “PFS, Events” value (ITT, 20 mg QD n = 5) was 3 (60.0) n (%). For the same molecule, the “PFS, Median (95% CI)” value (ITT, 20 mg QD n = 5) was 78 (39-NR) days, the Partial response (ITT, 20 mg QD n = 5) was 2 (50.0) n (%) and the Stable disease (ITT, 20 mg QD n = 5) was 0 n (%). For the same molecule, the Complete response (ITT, 40 mg QD n = 3) was 0 n (%), the DCR (ITT, 40 mg QD n = 3) was 0 (0) n (%) and the “DOR, Events” value (ITT, 40 mg QD n = 3) was 0 n (%). The ORR (ITT, 40 mg QD n = 3) was 0 (0) n (%), the “PFS, Events” value (ITT, 40 mg QD n = 3) was 2 (66.7) n (%) and the “PFS, Median (95% CI)” value (ITT, 40 mg QD n = 3) was 49 (48-NR) days. For the same molecule, the Partial response (ITT, 40 mg QD n = 3) was 0 n (%), the Stable disease (ITT, 40 mg QD n = 3) was 0 n (%) and the Complete response (ITT, 50 mg BID n = 4) was 0 n (%). For the same molecule, the DCR (ITT, 50 mg BID n = 4) was 2 (66.7) n (%), the “DOR, Events” value (ITT, 50 mg BID n = 4) was 0 n (%) and the ORR (ITT, 50 mg BID n = 4) was 1 (33.3) n (%). The “PFS, Events” value (ITT, 50 mg BID n = 4) was 1 (25.0) n (%), the “PFS, Median (95% CI)” value (ITT, 50 mg BID n = 4) was “— (46-NR)” and the Partial response (ITT, 50 mg BID n = 4) was 1 (33.3) n (%). The Stable disease (ITT, 50 mg BID n = 4) was 1 (33.3) n (%), the Complete response (ITT, 60 mg QD n = 5) was 0 n (%) and the DCR (ITT, 60 mg QD n = 5) was 4 (100) n (%). For the same molecule, the “DOR, Events” value (ITT, 60 mg QD n = 5) was 0 n (%), the ORR (ITT, 60 mg QD n = 5) was 1 (25.0) n (%) and the “PFS, Events” value (ITT, 60 mg QD n = 5) was 2 (40.0) n (%). The “PFS, Median (95% CI)” value (ITT, 60 mg QD n = 5) was 255 (127-NR) days, the Partial response (ITT, 60 mg QD n = 5) was 1 (25.0) n (%) and the Stable disease (ITT, 60 mg QD n = 5) was 3 (75.0) n (%). For the same molecule, the Complete response (ITT, 80 mg QD n = 9) was 0 n (%), the DCR (ITT, 80 mg QD n = 9) was 6 (75.0) n (%) and the “DOR, Events” value (ITT, 80 mg QD n = 9) was 4 (100) n (%). The “DOR, Median (95% CI)” value (ITT, 80 mg QD n = 9) was 144.5 (39-211) days, the ORR (ITT, 80 mg QD n = 9) was 4 (50.0) n (%) and the “PFS, Events” value (ITT, 80 mg QD n = 9) was 8 (88.9) n (%). For the same molecule, the “PFS, Median (95% CI)” value (ITT, 80 mg QD n = 9) was 167 (40-216) days, the Partial response (ITT, 80 mg QD n = 9) was 4 (50.0) n (%) and the Stable disease (ITT, 80 mg QD n = 9) was 2 (25.0) n (%). The Complete response (ITT, 100 mg QD n = 20) was 0 n (%), the DCR (ITT, 100 mg QD n = 20) was 12 (70.6) n (%) and the “DOR, Events” value (ITT, 100 mg QD n = 20) was 1 (50.0) n (%). The “DOR, Median (95% CI)” value (ITT, 100 mg QD n = 20) was “— (169-NR)”, the ORR (ITT, 100 mg QD n = 20) was 2 (11.8) n (%) and the “PFS, Events” value (ITT, 100 mg QD n = 20) was 8 (40.0) n (%). The “PFS, Median (95% CI)” value (ITT, 100 mg QD n = 20) was 289 (48-NR) days, the Partial response (ITT, 100 mg QD n = 20) was 2 (11.8) n (%) and the Stable disease (ITT, 100 mg QD n = 20) was 10 (58.8) n (%). For the same molecule, the Complete response (ITT, 120 mg QD n = 4) was 0 n (%), the DCR (ITT, 120 mg QD n = 4) was 1 (33.3) n (%) and the “DOR, Events” value (ITT, 120 mg QD n = 4) was 0 n (%). The ORR (ITT, 120 mg QD n = 4) was 0 (0) n (%), the “PFS, Events” value (ITT, 120 mg QD n = 4) was 3 (75.0) n (%) and the “PFS, Median (95% CI)” value (ITT, 120 mg QD n = 4) was 153 (44-258) days. The Partial response (ITT, 120 mg QD n = 4) was 0 n (%), the Stable disease (ITT, 120 mg QD n = 4) was 1 (33.3) n (%) and the Complete response (ITT, Total N = 57) was 0 n (%). For the same molecule, the DCR (ITT, Total N = 57) was 28 (63.6) n (%), the “DOR, Events” value (ITT, Total N = 57) was 6 (60.0) n (%) and the “DOR, Median (95% CI)” value (ITT, Total N = 57) was 169 (1-NR) days. The ORR (ITT, Total N = 57) was 10 (22.7) n (%), the “PFS, Events” value (ITT, Total N = 57) was 32 (56.1) n (%) and the “PFS, Median (95% CI)” value (ITT, Total N = 57) was 167 (56-255) days. The Partial response (ITT, Total N = 57) was 10 (22.7) n (%), the Stable disease (ITT, Total N = 57) was 18 (40.9) n (%) and the “Disease control rate (DCR)” value [1] was 63.6%. For the same molecule, the “Objective response rate (ORR)” value [1] was 22.7%, the “Stable disease, patients” value [1] was 40.9% and the “Median DOR” value (ITT, 95% CI, 1-not reached) was 169 days. The “Doses at which antitumor activity was observed” value (in vivo) was at least 20 mg QD, the “Patients with a decrease from baseline in tumor size” value (non-ovarian cancers (6/20)) was 30.0% and the “Patients with a decrease from baseline in tumor size” value (ovarian cancer (13/24)) was 54.2%. For the same molecule, the ORR (patients with breast cancer (3/12)) was 25.0%, the ORR (patients with ovarian cancer (5/25)) was 20.0% and the ORR (patients with prostate cancer (1/4)) was 25.0%.
